The results in this text go back to patent US12162879B2, “Pyridopyrimidine derivative, preparation method therefor and medical use thereof” (Jiangsu Hengrui Medicine Co., Ltd., priority 2018, dated 2024).

Type in all cases: cell-based
One assay concerns the target human TLR8 (Homo sapiens (Human), UniProt Q9NR97). The assay can be described thus: Agonist activity on human TLR8 in HEK-Blue hTLR8 stably transfected cells. Particulars: 16 hours, OD 620 nm. As for the experimental part:
The agonist effect of the compounds of the present invention on hTLR8 expressed by the HEK-Blue™ hTLR8 stably transfected cells was determined by the following experimental method.
(§1) • 1. DMEM(Gibco, 10564-029); • 2. Fetal bovine serum (GIBCO, 10099); • 3. Trypan blue solution (Sigma, T8154-100 ML); • 4. Flexstation 3 multi-function microplate reader (Molecular Devices); • 5. HEK-Blue™ hTLR8 cell line (InvivoGen, hkb-hTLR8), or HEK-Blue™ hTLR7 cell line (InvivoGen, hkb-hTLR7); • 6. HEK-Blue detection reagent (InvivoGen, hb-det3); and • 7. Phosphate buffer solution (PBS) pH 7.4 (Shanghai Basalmedia Technologies Co., Ltd., B320). II. Experimental Procedures a. Determination of Agonist Activity on Human TLR8
(§2) A bag of HEK-Blue detection dry powder was dissolved in 50 ml of water free of endotoxin, and the solution was then placed in an incubator at 37° C. for 10 minutes followed by sterile filtration to prepare a HEK-Blue detection medium. The compound was firstly formulated into a 20 mM stock solution, then diluted with pure DMSO to a maximum concentration of 6×10^6 nM, and a total of 10 points were obtained by a 3-fold gradient dilution. The above formulated compound was firstly diluted 20-fold with the medium, then 20 μl of the diluted compound was added to each well.
The supernate was removed from the HEK-Blue™ hTLR8 cells, to which 2-5 ml of pre-warmed PBS was then added. The cells were placed in an incubator for 1-2 minutes, gently pipetted, and counted by trypan blue staining. The cells were re-suspended in the HEK-Blue detection medium to adjust the concentration to 2.2×10^5 cells/ml. 180 μl of cells was added to the above 96-well plate comprising 20 μl of the compound, and incubated at 37° C. for 16 hours.
(§3) The corresponding OD values were obtained by a microplate reader at a wavelength of 620 nm, and the EC50 values of the compounds were calculated by Graphpad Prism.

Assay [1] concerns peripheral blood mononuclear cells (PBMC). In words: Stimulation of IL12 secretion from PBMC (ELISA). Particulars: minimum effective concentration, human PBMC, 24 hours. The method, then: (§4) The stimulating effect of the compounds of the present invention on the ability of secretion of IL12 and IFN γ from PBMC was determined by the following experimental method.
(§5) • 1. RMPI 1640 (Invitrogen, 11875); • 2. FBS (Gibco, 10099-141); • 3. Ficoll-Paque PREMIUM (GE, 17-5442-02); • 4. Trypan blue solution (Sigma, T8154-100 ML); • 5. SepMate™-50 (Stemcell, 15460); • 6. Bright-LineIM blood cell counter (Sigma, Z359629-1EA); • 7. 96-well cell culture plate (Corning, 3599); • 8. 96-well v-bottom plate (Corning, 3894); • 9. Human IL-12 ELISA kit (Neobioscience Technology Co., EHC152.96); • 10. Human IFN γ kit (cisbio, 62HIFNGPEG); and • 11. PHERAStar multi-function microplate reader (BMG, PHERAStar). II. Experimental Procedures
(§6) The compound was diluted with pure DMSO to a maximum concentration of 5 mM, and a total of 9 points were obtained by a 4-fold gradient dilution. 4 μl of the compound solution was then added to 196 μl of RMPI 1640 medium containing 10% FBS and mixed well. 50 μl of the mixture was taken and added to a 96-well cell culture plate.
(§7) All reagents were equilibrated to room temperature. 60 ml of blood from a healthy human and the same volume of PBS (containing 2% FBS) were added to a 250 ml culture flask, gently pipetted, mixed well and diluted. 15 ml of lymphocyte separation solution Ficoll-Paque PREMIUM was added to a 50 ml PBMC centrifuge tube SepMate™-50, followed by the addition of 30 ml of the above diluted blood. The mixture was centrifuged at 1200 g for 10 minutes at room temperature. The supernatant was taken and then centrifuged at 300 g for 8 minutes. The cells were re-suspended in the RMPI 1640 medium containing 10% FBS and counted, and the number of PBMCs was adjusted to 3.33×10^6 cells/ml. 150 μl of the cell solution was added to the plate containing the compounds, and incubated in an incubator at 37° C., 5.0% CO2 for 24 hours. The cell culture plate was placed in a centrifuge, and centrifuged at 1200 rpm for 10 minutes at room temperature. 150 μl of the supernatant was taken from each well.
The reagents in the Human IL-12 ELISA kit were equilibrated to room temperature. According to the kit's instruction, the highest concentration of the standard is 2000 pg/ml, and a total of 8 points were obtained by a 2-fold gradient dilution. The sample to be tested was diluted 20 folds. The solution was then added to a pre-coated plate at 100 μl/well. The plate was incubated at 37° C. for 90 minutes and rinsed. The […] was added at 100 μl/well, and the plate was incubated at 37° C. for 60 minutes and rinsed. HRP binding enzyme was added at 100 μl/well, and the plate was incubated at 37° C. for 30 minutes and rinsed. TMB was added, and the plate was incubated at room temperature for 5 minutes. Finally, the stop solution was added to stop the reaction, and the absorbance at 450 nm was read by the microplate reader.
(§8) The concentration of the compound that can stimulate PBMC to produce […] that is 3 times higher than the average value of the group without the compound (SD of the group without the compound) was defined as the minimum effective concentration (MEC) value of the compound.
In general terms: ELISA stands for enzyme-linked immunosorbent assay.

Assay [2] has the same test system. In words: Stimulation of IFNγ secretion from PBMC. The following applies: minimum effective concentration, human PBMC, 24 hours. As for the experimental part: as §4, §5, §6, §7
The reagents in the Human IFN γ test kit were equilibrated to room temperature. The standard and detection antibody were prepared according to the kit's instruction under dark conditions. 16 μl of the supernatant obtained by centrifugation was added to each well, and 4 μl of freshly prepared mixed detection antibody was added to each well. The solution was mixed well by shaking, and incubated overnight in the dark at room temperature. The plate was read by the PHERAStar multi-function microplate reader.
as §8

A further assay addresses human TLR7 (Homo sapiens (Human), UniProt Q9NYK1). The assay can be described thus: Agonist activity on human TLR7 in HEK-Blue hTLR7 cells. The following applies: 16 hours, OD 620 nm. The method, then: as §1, §2
The supernate was removed from the HEK-Blue™ hTLR7 cells, to which 2-5 ml of pre-warmed PBS was then added. The cells were placed in an incubator for 1-2 minutes, gently pipetted, and counted by trypan blue staining. The cells were re-suspended in the HEK-Blue detection medium to adjust the concentration to 2.2×10^5 cells/ml. 180 μl of cells was added to the above 96-well plate comprising 20 μl of the compound, and incubated at 37° C. for 16 hours.
as §3

Bounds are passed on as bounds.

human TLR8, sequence (Q9NR97 27-1041): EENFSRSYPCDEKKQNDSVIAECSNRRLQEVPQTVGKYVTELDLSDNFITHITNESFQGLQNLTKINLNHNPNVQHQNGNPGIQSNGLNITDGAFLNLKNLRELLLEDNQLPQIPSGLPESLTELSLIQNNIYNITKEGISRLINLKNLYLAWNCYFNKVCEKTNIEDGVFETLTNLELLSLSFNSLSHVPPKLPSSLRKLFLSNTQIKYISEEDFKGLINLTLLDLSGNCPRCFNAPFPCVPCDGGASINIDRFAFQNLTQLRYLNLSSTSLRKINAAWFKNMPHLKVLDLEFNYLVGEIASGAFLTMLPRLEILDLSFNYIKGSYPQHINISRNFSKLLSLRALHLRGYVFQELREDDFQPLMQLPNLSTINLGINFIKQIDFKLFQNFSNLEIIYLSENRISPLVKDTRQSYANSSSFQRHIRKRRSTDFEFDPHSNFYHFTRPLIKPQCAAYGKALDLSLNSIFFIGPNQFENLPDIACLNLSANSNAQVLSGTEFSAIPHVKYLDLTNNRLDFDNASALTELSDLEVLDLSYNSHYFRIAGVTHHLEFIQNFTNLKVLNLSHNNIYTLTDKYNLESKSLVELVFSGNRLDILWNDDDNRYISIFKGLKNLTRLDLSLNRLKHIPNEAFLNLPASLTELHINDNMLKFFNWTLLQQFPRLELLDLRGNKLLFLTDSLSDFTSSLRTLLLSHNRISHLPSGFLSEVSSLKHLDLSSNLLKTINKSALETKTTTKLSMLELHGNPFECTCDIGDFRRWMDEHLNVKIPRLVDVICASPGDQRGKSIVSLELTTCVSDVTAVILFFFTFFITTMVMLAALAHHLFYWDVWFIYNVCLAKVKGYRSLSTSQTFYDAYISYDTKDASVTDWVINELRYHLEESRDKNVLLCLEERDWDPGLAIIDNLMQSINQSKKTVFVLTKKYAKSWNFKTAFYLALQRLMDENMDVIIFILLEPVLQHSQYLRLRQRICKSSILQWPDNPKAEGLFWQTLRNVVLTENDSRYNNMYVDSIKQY
human TLR7, sequence (Q9NYK1 27-1049): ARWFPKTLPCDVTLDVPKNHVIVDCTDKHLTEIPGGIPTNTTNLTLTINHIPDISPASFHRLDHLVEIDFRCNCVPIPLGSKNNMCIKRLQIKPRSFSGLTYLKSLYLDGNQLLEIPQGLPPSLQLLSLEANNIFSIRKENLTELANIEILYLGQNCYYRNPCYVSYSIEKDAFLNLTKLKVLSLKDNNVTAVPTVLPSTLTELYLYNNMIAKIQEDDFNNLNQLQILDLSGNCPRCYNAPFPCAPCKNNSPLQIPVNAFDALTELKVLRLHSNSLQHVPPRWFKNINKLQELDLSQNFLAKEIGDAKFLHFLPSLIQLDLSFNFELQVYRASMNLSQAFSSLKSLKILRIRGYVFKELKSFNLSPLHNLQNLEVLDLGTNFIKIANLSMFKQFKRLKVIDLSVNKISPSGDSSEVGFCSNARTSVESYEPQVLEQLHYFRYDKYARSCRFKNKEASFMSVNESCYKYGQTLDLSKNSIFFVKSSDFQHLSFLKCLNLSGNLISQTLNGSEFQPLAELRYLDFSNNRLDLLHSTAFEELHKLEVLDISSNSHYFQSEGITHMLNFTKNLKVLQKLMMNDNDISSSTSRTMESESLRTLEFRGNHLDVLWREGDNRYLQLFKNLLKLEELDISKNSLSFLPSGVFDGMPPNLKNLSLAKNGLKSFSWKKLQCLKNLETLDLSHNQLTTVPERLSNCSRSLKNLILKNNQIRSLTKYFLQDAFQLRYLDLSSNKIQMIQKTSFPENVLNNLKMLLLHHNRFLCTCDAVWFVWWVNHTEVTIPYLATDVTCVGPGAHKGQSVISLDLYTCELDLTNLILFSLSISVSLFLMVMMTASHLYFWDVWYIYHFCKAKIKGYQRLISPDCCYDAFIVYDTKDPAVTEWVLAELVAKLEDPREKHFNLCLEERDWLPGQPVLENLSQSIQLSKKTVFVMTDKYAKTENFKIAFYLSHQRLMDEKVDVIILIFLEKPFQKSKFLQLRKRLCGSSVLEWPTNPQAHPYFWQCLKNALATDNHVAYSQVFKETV

Usually EC50 stands for the concentration that produces a half-maximal response. In general, Emax refers to the greatest response seen or fitted, relative to the assay's reference. For `CCCCC(C)(CO)Nc1nc(N)nc2cc(-c3ccc(CN4CCCC4)nc3)cnc12` (centres unmarked) [Example 1, 2-((2-Amino-7-(6-(pyrrolidin-1-ylmethyl)pyridin-3-yl)pyrido[3,2-d]pyrimidin-4-yl)amino)-2-methylhexan-1-ol], on human TLR8, a half-maximal response (EC50) required 130 nM and the Emax turned out to be 97%.
On to `CCCCC(C)(CO)Nc1nc(N)nc2cc(-c3ccc(C4CCN(C)CC4)nc3)cnc12` (centres unmarked) [Example 3, 2-((2-Amino-7-(6-(1-methylpiperidin-4-yl)pyridin-3-yl)pyrido[3,2-d]pyrimidin-4-yl)amino)-2-methylhexan-1-ol], for which, at human TLR8, the EC50 was 100 nM and the Emax turned out to be 104%. The “IL12 MEC” value in assay [1] amounted to 15 nM. In addition, in assay [2], the “IFNγ MEC” value was 27 nM.
As to `CCCC[C@](C)(CO)Nc1nc(N)nc2cc(-c3cnc(CN4CCN(C)CC4)nc3)cnc12` [Example 7, (R)-2-((2-Amino-7-(2-((4-methylpiperazin-1-yl)methyl)pyrimidin-5-yl)pyrido[3,2-d]pyrimidin-4-yl)amino)-2-methylhexan-1-ol], at human TLR8, the EC50 came to 80 nM and the Emax amounted to 116%.
On human TLR8, `CCCCC(C)(CO)Nc1nc(N)nc2cc(-c3ccc(CN4CCNCC4)nc3)cnc12` (centres unmarked) [Example 9, 2-((2-Amino-7-(6-(piperazin-1-ylmethyl)pyridin-3-yl)pyrido[3,2-d]pyrimidin-4-yl)amino)-2-methylhexan-1-ol] showed an EC50 of 150 nM and a maximal effect (Emax) of 103%. Also, on human TLR7, the EC50 is more than 30000 nM and the Emax came out at 5%. In assay [1], the “IL12 MEC” value is listed as 24 nM. In assay [2], the “IFNγ MEC” value was 94 nM.
